Test results: patent US20150328329A1, “LIGANDS THAT TARGET HCV-E2 BINDING SITES ON CD81 AND THERAPEUTIC METHODS USING THEM” (American University of Cairo, priority 2012, published 2015)

T1: recombinant CD81-LEL (GST tag) (Homo sapiens, UniProt P60033)
T1 construct: the large extracellular loop of CD81 (CD81-LEL); gift of Dr. Shoshana Levy, Stanford University
T1 sequence (P60033 113-201 limits assumed): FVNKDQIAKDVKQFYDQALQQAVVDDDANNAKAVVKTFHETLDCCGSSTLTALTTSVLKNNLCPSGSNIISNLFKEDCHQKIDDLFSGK

T2: recombinant CD81-LEL (Homo sapiens, UniProt P60033)
T2 construct: the large extracellular loop of CD81 (CD81-LEL); GST; His; Shoshana Levy Lab, Stanford (gift)
T2 sequence (P60033 113-201 limits assumed): T1 sequence (P60033 113-201 limits assumed)

T3: native CD81 on Raji cells (Homo sapiens, UniProt P60033)
T3 construct: endogenous in cells; host or cells: Raji (human B cell line)
T3 sequence (P60033 1-236): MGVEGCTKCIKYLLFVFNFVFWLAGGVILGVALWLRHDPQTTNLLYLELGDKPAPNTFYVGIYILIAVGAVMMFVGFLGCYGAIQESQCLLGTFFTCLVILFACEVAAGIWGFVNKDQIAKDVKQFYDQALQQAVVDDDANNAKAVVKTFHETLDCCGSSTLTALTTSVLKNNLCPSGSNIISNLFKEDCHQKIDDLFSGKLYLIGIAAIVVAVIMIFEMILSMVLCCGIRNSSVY

B1: E2 Protein: HCV E2 envelope glycoprotein that binds CD81 (protein)
chain: QTHITGGSTAHAAAGLANLFSMGPKQDIRLINTNGSWHINRTALNCNESLNTGWVAGLLYYNKFNSSGCSERLASCRPLTDFAQGWGPISYANGSGPDQRPYCWHYPPRPCGIVPAKSVCGPVYCFTPSPVVVGTTDRSGAPTYSWGENETDVFILNNTRPPLGNWFGCTWMNSSGFTKVCGAPPCVIGGVGNNTLRCPTDCFRKHPEATYSRCGSGPWITPRCLVNYPYRLWHYPCTINYTIFKVRMYVGGVEHRLEAACNWTRGERCDLEDRDRSELSPLLLSTTQWQVLPCSFTTLPALSTGLIHLHQNIVDVQYLYGVGSSIASWAIKWDYVVLLFLLLADARVCSCLWMMLLISQAEA

These molecules were tested against T1, recombinant CD81-LEL (GST tag) (assay: Surface plasmon resonance (Biacore T200) binding of ligands to immobilized recombinant CD81-LEL). Settings: Table A; ligand 600 μM in PBS-0.05% Tween-80; CD81-LEL-GST on CM5 chip.
Description: SPR analysis was performed using a Biacore T200 workstation (GE Healthcare, NJ, USA). A recombinant form of the CD81-LEL protein with a GST tag (generously provided by Dr. Shoshana Levy, Stanford University) was used to confirm, using an established experimental technique, the binding of several ligands to the protein. Briefly, 10 μM CD81-LEL-GST diluted into 10 mM Na-Acetate buffer pH 4.5 was immobilized for 15 min at a flow speed of 5 μl/min onto a CM5 sensor chip using amine-coupling (EDC-NHS). Approximately 20,000 RU of protein were immobilized on the chip. The ligands were prepared as 600 μM solutions in PBS-0.05% Tween-80 (the running buffer) and they were introduced to the protein using a pre-programmed 3 minute association and 1 minute dissociation interval.
The binding affinity of the most tightly bound ligand in the group selected for ligand conjugate design (Ligand 1) was estimated using data collected from a series of SPR binding experiments conducted at different ligand concentrations. To obtain the kinetic and affinity data needed to estimate the Kd, the original ligand was diluted serially with running buffer to produce seven different ligand concentrations: 1024 μM, […], 256 μM, 128 μM, 64 μM, 32 μM and 0 μM. Data were fitted using a monovalent binding model.
A total of 36 ligands were tested experimentally using surface Plasmon resonance (on a Biacore T200 instrument) to identify which of the molecules calculated to bind to Sites 1 and 2 on CD81 actually bind to a recombinant form of the protein (CD81-LEL). Twenty-six of the molecules provided a positive change in response units (RU) upon introduction to a chip containing the immobilized protein (Table A), indicating the ligands bound to the protein. The measured responses for the ligands that bound varied from 2.3 to 78.4 RU. Those ligands providing the largest responses tended to be molecules that were calculated to bind more deeply inside cavities in Site 1 (ligands 30930, 98026, 7436, 5069), Site 2 (ligands 127947, 38743) or Site 4 (ligands 78623, 16631).
Experimental analysis of ligand binding to recombinant CD81 LEL. Forty ligands calculated by AutoDock to bind to sites 1 and 2 on CD81-LEL were tested experimentally using surface Plasmon resonance as described in the Materials and Methods section. Ligand code numbers are those assigned by the National Cancer Institute. […] Because the binding experiments were performed by passing the same concentration of each ligand sequentially across the same protein coated chip using both techniques, the magnitude of the responses can be used to provide an approximate ranking of binding strength.

| Molecule | SPR Response Units |
| --- | --- |
| O=C(O)CC1OCC=C2CN3CCC45C6=CC(=O)C(=O)C([N+](=O)[O-])=C6NC4C1C2CC35 (centres unmarked) [Ligand 5069] | 67.5 RU |
| CC(C)(C)c1ccc(NS(=O)(=O)c2ccc(N)cc2)cc1 [Ligand 7436] | 78.4 RU |
| O=C(O)CSc1nc2ccccc2s1 [Ligand 11891] | 15.2 RU |
| O=C(O)c1ccc(O)c(O)c1 [Ligand 16631] | 61.8 RU |
| O=C(O)/C=C\c1cc2c(cc1[N+](=O)[O-])OCO2 [Ligand 21034] | 21.1 RU |
| CC(C)OC1CCCC(O)C1CC(=O)O (centres unmarked) [Ligand 25368] | 13.3 RU |
| O=C(O)CCC1(c2ccccc2)NC(=O)NC1=O (centres unmarked) [Ligand 38743] | 30.6 RU |
| CC(C)CNC(=O)/C=C\C(=O)O [Ligand 55573] | 10.6 RU |
| O=C(O)CCCCC1SCC2NC(=O)NC21 (centres unmarked) [Ligand 63865] | 58 RU |
| O=C(Nc1ccc(O)c(C(=O)O)c1)Oc1ccccc1 [Ligand 68971] | 12.1 RU |
| N=C(N)N/N=C/c1c(Cl)cccc1Cl [Ligand 68982] | 41.2 RU |
| Nc1nc(O)c(CC(=O)O)s1 [Ligand 70980] | 14.1 RU |
| COc1cc(-c2ccc(Nc3ccccc3C(=O)O)c(OC)c2)ccc1Nc1ccccc1C(=O)O [Ligand 73735] | 1957.8 RU |
| NC(=O)CCC(C(=O)O)N1C(=O)c2ccc(O)cc2C1=O (centres unmarked) [Ligand 78623] | 54.5 RU |
| CC(C)=CCC1=C(OCC(=O)O)C(=O)c2ccccc2C1=O [Ligand 98026] | 50 RU |
| CCCNC1=C(C)C(=O)C2=C(C1=O)C(COC(N)=O)C1(OC)C3NC3CN21 (centres unmarked) [Ligand 123115] | 34.5 RU |
| COc1cc(CCC(=O)O)on1 [Ligand 303800] | 7.8 RU |
| COc1ccccc1/C=C(\C#N)C(=O)O [Ligand 638134] | 25 RU |

Each molecule was assayed against T2, recombinant CD81-LEL (assay: Dual polarization interferometry (DPI) binding of ligands to immobilized recombinant CD81-LEL). Settings: Table A; ligand 500 μM in PBS, 2.5% DMSO.
Description: DPI analyses were performed using an AnaLight 4D workstation (Farfield Group, Manchester UK). The recombinant CD81-LEL was immobilized onto a Thiol AnaChip using Sulfo-GMBS as a cross-linker in PBS running buffer. Non-specific sites were blocked with digested casein. TRIS was used to cap the cross-linker, blocking any additional amines from covalently binding to the cross-linker on the chip surface. Ligands were prepared as a 20 mM stock solutions in DMSO. Each ligand was diluted to a final concentration of 500 μM in PBS just prior to injection (final DMSO concentration was 2.5%). PBS and DMSO mixed in the same ratio were used as a blank. Data collection and analysis were performed using the AnaLight Resolver.
Six of the more interesting ligand candidates being considered for use in creating a ligand conjugate (three calculated to bind to Site 1 and three calculated to bind to Site 2) were further tested to confirm binding using a second experimental technique, dual polarization interferometry. The results, shown in FIG. 6, confirmed that all six ligands bound to the protein. The relative rank in strength of binding of the Site 1 and 2 ligands, as determined by DPI, were also similar to the ranking obtained by SPR or calculated by AutoDock for the majority of the ligands. […] One reason for this observed difference in the DPI response may relate to conformational changes in the protein that occur when the small molecules bind. The change in radians measured using DPI when a ligand binds to a protein is known to result from a combination of two effects: 1) the resulting increase in mass/volume when the ligand binds to the protein on the surface of the chip and 2) a conformational change in the protein induced by the binding of the ligand. Molecules binding in the deeper cavity would be expected to have more and stronger contacts with the protein than ligands sitting exposed to solvent in shallow cavities or surface binding sites. […]

| Molecule | DPI Radians |
| --- | --- |
| O=C(O)Cn1cnc2c(=S)nc[nH]c21 [Ligand 36914] | 0.1448 Radians |
| O=C(O)c1ccccc1C(=O)Nc1ccccc1[N+](=O)[O-] [Ligand 41066] | 0.2700 Radians |
| O=C(O)/C=C\C(=O)Nc1nccs1 [Ligand 80807] | 0.1909 Radians |
| Cn1c(=O)c2[nH]c(CNc3ccc(C(=O)O)cc3)nc2n(C)c1=O [Ligand 81750] | 0.4360 Radians |
| NC(=S)Nc1cccc(Cl)c1 [Ligand 164965] | 0.7494 Radians |

Same assay, conditions: Table B and b111; ligand 500 μM in PBS, 2.5% DMSO

| Molecule | DPI Response (Radians), ligand added to CD81 protein |
| --- | --- |
| O=C(OCc1ccccc1)c1ccccc1O [Benzyl salicylate, reference compound] | 0.5818 Radians |
| O=C(O)CCC1(c2ccccc2)NC(=O)NC1=O (centres unmarked) [Ligand 38743] | 0.8593 Radians |
| CC(C)=CCC1=C(OCC(=O)O)C(=O)c2ccccc2C1=O [Ligand 98026] | 1.1918 Radians |
| NC(=S)Nc1cccc(Cl)c1 [Ligand 164965] | 0.7494 Radians |

Same assay, conditions: Table B and b111; ligand 500 μM in PBS, 2.5% DMSO; listed as benzyl salicylate

| Molecule | DPI Response (Radians), ligand added to CD81 protein |
| --- | --- |
| O=C(OCc1ccccc1)c1ccccc1O [Benzyl salicylate, reference compound] | 0.58 Radians |

Same assay, conditions: Table D; single molecule added to CD81

| Molecule | DPI Binding Response (Radians), molecule added alone to CD81 |
| --- | --- |
| B1 | 4.1402 Radians |

These molecules were tested against T3, native CD81 on Raji cells (assay: Competition assay: inhibition of FITC-labeled JS-81 anti-CD81 antibody binding to native CD81 on live Raji cells (flow cytometry)). Settings: 50 μM ligand.
Format: cell-based
From the text: A subset of these ligands and some of those listed in the patent have been tested to identify those ligands that bind to the correct region of the CD81 protein and for binding to native CD81 on living cells (a Raji cell line). This assay tests three concentrations of the ligand to determine if the ligand is capable of inhibiting the binding of an antibody called JS-81. This antibody is known to bind to the region of the CD81 protein we have targeted. If the ligand decreases JS-81 binding as you increase the concentration of the ligand, it is 1) binding to native CD81 on the Raji cells and 2) it is binding to the correct region of the protein.
For antibody neutralization assay Raji cells were used, a human B cell line that expressed high amounts of CD81 on the surface (data not shown). Cells were grown in RPMI medium (10% FCS, 1% penicillin/streptomycin, 1% L-glutamine, 1% non-essential amino acids, 1% sodium pyruvate, pH 7.4, at 37° C. with 5% CO2). 2×10^5 cells were incubated with or without different concentrations (50 μM, 100 μM, 400 μM and 1 mM) of indicated inhibitor for 20 min at room temperature, subsequently 1 ul (16 ng/μl) of FITC-labeled anti CD81 antibody (BD Pharmingen, 551108) was added to the cells and incubated for 20 min (antibody titration was performed to obtain a working dilution range, data not shown). Cells were washed and analyzed by flow cytometry using fluorescence-activated cell sorting (FACS) (BD FACSCalibur, software: Cell Quest Pro). Mean Fluorescence Intensity MFI was calculated using Flowjo software (TreesStar, www.flowjo.com).

| Molecule | Inhibition of JS-81 Binding (%) |
| --- | --- |
| CC(C)(C)c1ccc(NS(=O)(=O)c2ccc(N)cc2)cc1 [Ligand 7436] | 0% |
| N=C(N)N/N=C/c1c(Cl)cccc1Cl [Ligand 68982] | 0% |
| COc1cc(-c2ccc(Nc3ccccc3C(=O)O)c(OC)c2)ccc1Nc1ccccc1C(=O)O [Ligand 73735] | 0% |
| CC(C)=CCC1=C(OCC(=O)O)C(=O)c2ccccc2C1=O [Ligand 98026] | 0% |

Same assay, conditions: 100 μM ligand

| Molecule | Inhibition of JS-81 Binding (%) |
| --- | --- |
| CC(C)(C)c1ccc(NS(=O)(=O)c2ccc(N)cc2)cc1 [Ligand 7436] | 12% |
| N=C(N)N/N=C/c1c(Cl)cccc1Cl [Ligand 68982] | 13% |
| COc1cc(-c2ccc(Nc3ccccc3C(=O)O)c(OC)c2)ccc1Nc1ccccc1C(=O)O [Ligand 73735] | 0% |
| CC(C)=CCC1=C(OCC(=O)O)C(=O)c2ccccc2C1=O [Ligand 98026] | 0% |

Same assay, conditions: 400 μM ligand

| Molecule | Inhibition of JS-81 Binding (%) |
| --- | --- |
| CC(C)(C)c1ccc(NS(=O)(=O)c2ccc(N)cc2)cc1 [Ligand 7436] | 11% |
| N=C(N)N/N=C/c1c(Cl)cccc1Cl [Ligand 68982] | 15% |
| COc1cc(-c2ccc(Nc3ccccc3C(=O)O)c(OC)c2)ccc1Nc1ccccc1C(=O)O [Ligand 73735] | 24% |
| CC(C)=CCC1=C(OCC(=O)O)C(=O)c2ccccc2C1=O [Ligand 98026] | 21% |
